These results are taken from patent US20070275086A1, “Use of Increased Molecular-Weight Hirudin as an Anticoagulant in Extracorporeal Kidney Replace Therapy” (Max-Planck-Gesellschaft Zur Forderung Der Wissenschaften E.V, priority 1999, published 2007).

Series [1] can be described thus: Dialyser filling volume and clotting in the extracorporeal circuit at end of haemodialysis. Type of series: in vivo, human. The text has this:
Following this, the patient was transferred to PEG-hirudin.

Series [2] relates to blood platelets. Particulars: human, in vivo. The source says: Patient one. […] Patient was anticoagulated with 6900 IU heparin.
The objective and subjective findings which point towards an HIT II condition were no longer evident after the changeover to anticoagulation with PEG-hirudin. The blood platelet counts, which had constantly shown values above 400/nl during the last dialyses under heparin, fell during the PEG-hirudin haemodialysis to the range from 320 to 350/nl; a trend towards continued normalisation was clearly demonstrable.
The patient was then transferred to PEG-hirudin.

Series [3] concerns HIT II-positive patients. The note with it: human, in vivo.
Protocol: Patient was anticoagulated with 6900 IU heparin. […] The patient complained during dialysis and also in the dialysis-free intervals of problems relating to blood pressure and in some cases mild states of confusion. […] The average number of blood platelets before and after haemodialysis was between 350 and 400/nl.
The patient was transferred to PEG-hirudin according to the following dosage scheme: first haemodialysis: 0.1 mg/kg as a bolus, second to 10th haemodialysis: 0.05 mg/kg PEG hirudin, 11th haemodialysis and beyond: 0.025 mg/kg. […] The blood level of PEG hirudin fluctuated between 0.4 μg/ml before the start of haemodialysis and 1.0 μg/ml after dialysis. The filling volumes with the Type GFS plus 11 dialysers (GAMBRO) were as follows: under heparin application—the mean value for the last three heparin-anticoagulated dialyses was 87 ml; the filling volume during PEG-hirudin treatment for HD 5-HD 6 was 96 ml.
Creatinine clearance was less than 12 ml/min. The anticoagulant used during haemodialysis was un-fractionated heparin. Additionally, the dialysers (H120, Braun-Melsungen) were “primed” before the start of haemodialysis with 500 units of heparin. The patient received 3000 units of heparin as a bolus and 3000 units of heparin as an infusion during the 3.5 hour haemodialysis. […]
In series [4] the test system is HIT II antibodies.
Protocol: Patient. […] Patient was anticoagulated with 6900 IU heparin. […] The patient complained during dialysis and also in the dialysis-free intervals of problems relating to blood pressure and in some cases mild states of confusion. […] The average number of blood platelets before and after haemodialysis was between 350 and 400/nl.
Creatinine clearance was less than 12 ml/min. The anticoagulant used during haemodialysis was un-fractionated heparin. Additionally, the dialysers (H120, Braun-Melsungen) were “primed” before the start of haemodialysis with 500 units of heparin. The patient received 3000 units of heparin as a bolus and 3000 units of heparin as an infusion during the 3.5 hour haemodialysis. […] The patient complained of tingling in the extremities, a feeling of restlessness and intermittent state of confusion. Between the dialysis sessions, the patient complained of headaches, malaise and loss of appetite. They stated that the people around them complained that they were irritable and seemed under stress.
This patient had been dialysed for 5 months initially with un-fractionated heparin, then with fractionated heparin (Enoxaparin). Enoxaparin was applied in a dose of 20 mg directly before the start of the dialysis. After an incorrect dialysis (rise in pressure before the dialyser) over the dialysis period of 4.5 h, an additional 10 mg Enoxaparin were applied via an indwelling infusion pump placed before the dialyser (F 50 S, Fresenius). The patient indicated severe shortness of breath, a decline in circulation and blood pressure to base values of 80/30 mmHg shortly after the start of haemodialysis.

“And” between values parts separate entries of the source, which are not always exact repeats. Equal entries are not always repeated.

With heparin, the “filling volume of dialyser” value in series [1] (patient one, Type GFS plus 11 dialysers (GAMBRO), specified 100 ml, heparin: mean of last three dialyses, PEG-hirudin: HD 5-HD 6) was 87 mL. Further, the “filling volume at the end of haemodialysis” value in series [1] (patient two, H120 dialysers, heparin: last two haemodialyses, PEG-hirudin: after the 4th haemodialysis) was 71 mL and 73 mL. In series [2], the “average number of blood platelets before and after haemodialysis” value fell in the range of 350 to 400 nL⁻¹; the blood platelet counts result is given as “above 400 /nl”. Further, the “fall in blood pressure at the start of haemodialysis” value in series [3] stood at 35 mmHg. Further, in series [4], the “HIT II-specific diagnosis (HIPA-test)” value is “positive result”; the “tests for HIT-positive antibodies (HIPA and ELISA)” value was “strongly positive”.
As to Enoxaparin, in series [2], the “blood platelets during haemodialysis, reduced down to” value worked out at 100 nL⁻¹. Also, the “blood pressure base values shortly after the start of haemodialysis” value in series [3] is given as 80/30. The “tests for HIT II antibodies (HIPA test and platelet-factor-4 ELISA)” value in series [4] is on record as “positive”.
